The nature of series [1]: Cellular viability assay (alamarBlue) in TZM-bl cells. It is filed as cell-based. As to conditions: human, 50% cytotoxic concentration. The protocol:
Before the antiviral activity screening, all spirocyclopentene-β-lactams were assayed for their in vitro cytotoxic activity (CC50) in TZM-bl cells (Table 4).
TZM-bl cells (AIDS Research and Reference Reagent Program, National Institutes of Health, United States) were cultured in complete growth medium consisting of Dulbecco’s Minimal Essential Medium (DMEM) supplemented with 10% fetal bovine serum (FBS), 100 U/ml of penicillin–streptomycin (Gibco/Invitrogen, United States), 1 mM of sodium pyruvate (Gibco/Invitrogen, United States), 2 mM of L-glutamine (Gibco/Invitrogen, United States), and 1 mM of non-essential amino acids (Gibco/Invitrogen, United States). Cell cultures were maintained at 37°C in 5% CO2.
The in vitro cytotoxicity of test compounds was evaluated in TZM-bl cells using alamarBlue cell viability reagent (Life Technologies, United States), according to the instructions of the manufacturer. The cells were cultured in the presence and absence of serial-fold dilutions of the test compounds. Each dilution of each compound was performed in triplicate wells. Medium controls (only growth medium), cell controls (cells without test compound), and cytotoxicity controls (a compound that kills cells) were employed in each assay.
Background: Resazurin is reduced to fluorescent resorufin, in cell work by metabolically active cells.

The next series concerns HIV-1 SG3.1. The series is described as follows: microbe, parasite or virus in culture. As to conditions: for Therapeutic index (CC50/IC50): CC50 in TZM-bl cells; for IC50 / inhibition at 25 µg/mL / IC90: Human immunodeficiency virus 1, TZM-bl; for IC50 / IC90: 48 h; for IC50: read-out: IC50 HIV-1, TZM-bl cells, 48 h; for inhibition at 25 µg/mL: read-out: MPI (%) 25 μg/mL; for IC90: read-out: IC90 HIV-1. The source says: The HIV-1 SG3.1 is a reference subtype B strain that uses the CXCR4 coreceptor. It was obtained by transfection of HEK293T cells with pSG3.1 plasmid using jetPRIME transfection reagent (Polyplus-transfection SA, Illkirch, France), according to the instructions of the manufacturer.
Briefly, TZM-bl cells were infected with 200 TCID50 of HIV-1 or HIV-2 in the presence of serial-fold dilutions of the compounds in the growth medium, supplemented with diethylaminoethyl-dextran (DEAE-dextran). After 48 h of infection, luciferase expression was quantified with Pierce Firefly Luc One-Step Glow Assay Kit (ThermoFisher Scientific, Rockford, United States), according to the instructions of the manufacturer. For each compound dilution, the assay was set up in triplicate wells. Virus controls, cell controls, and inhibitors controls (drugs with a known action against each virus) were employed.

A value given as a limit tells only on which side of the number the result lay.

Usually CC50 stands for the concentration that lowers cell viability or growth by half. A higher CC50 goes with lower toxicity to the cells. In general, IC50 refers to the concentration that gives 50% inhibition. For orientation: melting point means the temperature of the solid-liquid transition. As for `CC1(C)SC2N(C(=O)C23CC=C(C(=O)OCc2ccc(Cl)cc2)C3C(=O)c2ccccc2)C1C(=O)OC(c1ccccc1)c1ccccc1` (stereo not drawn) [Compound 9k, (1’R,2’R)-Benzhydryl spiro[(2-benzoyl-3-(4-chlorobenzyloxycarbonyl)cyclopent-3-ene)-1’,6-penicillanate]], the melting point was in the range of 49.8 to 51.5 °C. This molecule registered a CC50 in series [1] of 54.1 µM. Further, the “Therapeutic index (CC50/IC50)” value in the series with HIV-1 SG3.1 (HIV-1) came out at 148.11. Further, in the series with HIV-1 SG3.1, the concentration for half-maximal inhibition (IC50) was found to be 0.366 µM and the inhibition at 25 µg/mL is 84%.
On to `CC(C)(C)c1ccc(OC(=O)C2=CCC3(C(=O)N4C(C(=O)OC(c5ccccc5)c5ccccc5)C(C)(C)SC43)C2C(=O)c2ccccc2)cc1` (stereo not drawn) [Compound 9b, (1’R,2’R)-Benzhydryl spiro[(2-benzoyl-3-(4-tert-butylphenoxycarbonyl)cyclopent-3-ene)-1’,6-penicillanate]], for which the melting point is 206.7 to 208.9 °C. Also, it took 54.7 µM to reach half-maximal cytotoxicity in series [1] (CC50). Besides, in the series with HIV-1 SG3.1, the inhibition at 25 µg/mL is 0%.
Regarding `CC1(C)SC2N(C(=O)C23CC=C(C(=O)Oc2ccccc2)C3C(=O)c2ccccc2)C1C(=O)OC(c1ccccc1)c1ccccc1` (stereo not drawn) [Compound 9a, (1′R,2′R)-Benzhydryl spiro[(2-benzoyl-3-phenoxycarbonylcyclopent-3-ene)-1′,6-penicillanate]], the melting point is > 137 °C (dec.). In series [1], this molecule came in with a CC50 of 215 µM. In addition, in the series on HIV-1 SG3.1 (HIV-1), the “anti-HIV activity (in words)” value is “lack of antiviral activity”. In addition, the inhibition at 25 µg/mL with HIV-1 SG3.1 was found to be 0%.
With `CC1(C)SC2N(C(=O)C23C(C(=O)OCc2ccccc2)=CCC3C(=O)c2ccc3ccccc3c2)C1C(=O)OC(c1ccccc1)c1ccccc1` (stereo not drawn) [Compound 13h, (1’R,2’R)-Benzhydryl spiro[(2-naphthoyl-5-benzyloxycarbonylcyclopent-4-ene)-1’,6-penicillanate]], the melting point is 90.8 to 92.8 °C. Besides, the CC50 in series [1] worked out at 56.2 µM. The inhibition at 25 µg/mL in the series with HIV-1 SG3.1 was determined as 0%.
The like results for `CC1(C)SC2N(C(=O)C23C(C(=O)OCc2ccccc2)=CCC3C(=O)c2ccc(F)cc2)C1C(=O)OC(c1ccccc1)c1ccccc1` (stereo not drawn) [Compound 13a, (1′R,2′R)-benzhydryl spiro[(2-(4-fluorobenzoyl)-5-benzyloxycarbonylcyclopent-4-ene)-1′,6-penicillanate]] were, in that order, 73.9 to 75.9 °C, 64.8 µM and 0%.
The term IC90 denotes the point of the concentration-response curve where the effect stands at 90%. `Cc1ccc(COC(=O)C2=CCC3(C(=O)N4C(C(=O)OC(c5ccccc5)c5ccccc5)C(C)(C)SC43)C2C(=O)c2ccccc2)cc1` (stereo not drawn) [Compound 9j, (1’R,2’R)-Benzhydryl spiro[(2-benzoyl-3-(4-methylbenzyloxycarbonyl)cyclopent-3-ene)-1’,6-penicillanate]] showed a melting point of 59 to 60.8 °C. For the same molecule, in series [1], the CC50 came out at 60 µM. Besides, in the series with HIV-1 SG3.1 (HIV-1), the “Therapeutic index (CC50/IC50)” value was determined as 674.49. In addition, in the series with HIV-1 SG3.1, the half-inhibitory concentration (IC50) came out at 0.089 µM, the 90% effect concentration (IC90) stood at 0.209 µM and the inhibition at 25 µg/mL is 93%.
Molecule `Cc1ccc(COC(=O)C2=CCC3(C(=O)N4C(C(=O)OC(c5ccccc5)c5ccccc5)C(C)(C)SC43)C2C(=O)c2ccc(Cl)cc2)cc1` (stereo not drawn) [Compound 14e, (1’R,2’R)-Benzhydryl spiro[(2-(4-chlorobenzoyl)-3-(4-methylbenzyloxycarbonyl)cyclopent-3-ene)-1’,6-penicillanate]] came in with a melting point of 79.5 to 81.5 °C. Besides, in series [1], the midpoint of cytotoxicity, the CC50, lay at 100 µM. Also, the “Therapeutic index (CC50/IC50)” value in the series with HIV-1 SG3.1 (HIV-1) is listed as 474.41. In the series with HIV-1 SG3.1, the IC50 stood at 0.211 µM, the 90% effect concentration (IC90) is 0.72 µM and the inhibition at 25 µg/mL was found to be 94%.
As to `CC1(C)SC2N(C(=O)C23C(C(=O)OCc2ccccc2)=CCC3C(=O)c2ccc([N+](=O)[O-])cc2)C1C(=O)OC(c1ccccc1)c1ccccc1` (stereo not drawn) [Compound 13d, (1’R,2’R)-Benzhydryl spiro[(2-(4-nitrobenzoyl)-5-benzyloxycarbonylcyclopent-4-ene)-1’,6-penicillanate]], the melting point is 122.7 to 124.7 °C. Moreover, the CC50 in series [1] was 73.8 µM. Moreover, in the series on HIV-1 SG3.1, the inhibition at 25 µg/mL came out at 0%.
Consider `CC1(C)SC2N(C(=O)C23CC=C(C(=O)OCc2ccccc2)C3C(=O)c2ccc([N+](=O)[O-])cc2)C1C(=O)OC(c1ccccc1)c1ccccc1` (stereo not drawn) [Compound 12d, (1’R,2’R)-Benzhydryl spiro[(2-(4-nitrobenzoyl)-3-benzyloxycarbonylcyclopent-3-ene)-1’,6-penicillanate]], for which the melting point was 122 to 123.7 °C. Moreover, in series [1], the CC50 amounted to 53 µM. For the same molecule, in the series with HIV-1 SG3.1 (HIV-1), the “Therapeutic index (CC50/IC50)” value was determined as 297.75. Further, in the series on HIV-1 SG3.1, the IC50 was found to be 0.178 µM, the 90% effect concentration (IC90) was found to be 0.413 µM and the inhibition at 25 µg/mL worked out at 80%.
`CC1(C)SC2N(C(=O)C23CC=C(C(=O)OCc2ccccc2)C3C(=O)c2ccc(C(F)(F)F)cc2)C1C(=O)OC(c1ccccc1)c1ccccc1` (stereo not drawn) [Compound 12e, (1’R,2’R)-Benzhydryl spiro[(2-(4-trifluoromethylbenzoyl)-3-benzyloxycarbonylcyclopent-3-ene)-1’,6-penicillanate]] showed a melting point of 134.1 to 135.5 °C. Besides, the CC50 in series [1] was 64.4 µM. The “Therapeutic index (CC50/IC50)” value in the series with HIV-1 SG3.1 (HIV-1) turned out to be 49.39. Besides, in the series with HIV-1 SG3.1, the IC50 was determined as 1.3 µM, the concentration for an effect of 90% (IC90) turned out to be 1.5 µM and the inhibition at 25 µg/mL amounted to 76%.
In the case of `Cc1ccc(COC(=O)C2=CCC3(C(=O)N4C(C(=O)OC(c5ccccc5)c5ccccc5)C(C)(C)SC43)C2C(=O)c2ccc(Br)cc2)cc1` (stereo not drawn) [Compound 14h, (1’R,2’R)-Benzhydryl spiro[(2-(4-bromobenzoyl)-3-(4-methylbenzyloxycarbonyl)cyclopent-3-ene)-1’,6-penicillanate]], the melting point fell in the range of 74.9 to 76.9 °C. This molecule showed a half-maximal cytotoxic concentration (CC50) in series [1] of 72.1 µM. Further, in the series on HIV-1 SG3.1 (HIV-1), the “Therapeutic index (CC50/IC50)” value turned out to be 649.73. Moreover, in the series with HIV-1 SG3.1, the IC50 was 0.111 µM, the concentration for an effect of 90% (IC90) came out at 0.297 µM and the inhibition at 25 µg/mL is 93%.
The molecule `CC1(C)SC2N(C(=O)C23CC=C(C(=O)OCC=Cc2ccccc2)C3C(=O)c2ccc(Cl)cc2)C1C(=O)OC(c1ccccc1)c1ccccc1` (stereo not drawn) [Compound 14f, (1’R,2’R)-Benzhydryl spiro[(2-(4-chlorobenzoyl)-3-cinnamyloxycarbonylcyclopent-3-ene)-1’,6-penicillanate]] yielded a melting point of 81.7 to 83.7 °C. Also, half-maximal cytotoxicity in series [1] (CC50) was put at 87.5 µM. Further, in the series with HIV-1 SG3.1 (HIV-1), the “Therapeutic index (CC50/IC50)” value was found to be 1305.67. For the same molecule, in the series with HIV-1 SG3.1, the IC50 was 0.067 µM, the IC90 stood at 0.198 µM and the inhibition at 25 µg/mL was found to be 97%.
The molecule `COc1cccc(OC(=O)C2=CCC3(C(=O)N4C(C(=O)OC(c5ccccc5)c5ccccc5)C(C)(C)SC43)C2C(=O)c2ccccc2)c1` (stereo not drawn) [Compound 9c, (1’R,2’R)-Benzhydryl spiro[(2-benzoyl-3-(3-methoxyphenoxycarbonyl)cyclopent-3-ene)-1’,6-penicillanate]] returned a melting point of 67.8 to 69.7 °C. In series [1], the cytotoxic concentration (CC50) is 58.1 µM. For the same molecule, the inhibition at 25 µg/mL with HIV-1 SG3.1 is 0%.
`CC1(C)SC2N(C(=O)C23CC=C(C(=O)OC(c2ccccc2)c2ccccc2)C3C(=O)c2ccccc2)C1C(=O)OC(c1ccccc1)c1ccccc1` (stereo not drawn) [Compound 9g, (1’R,2’R)-Benzhydryl spiro[(2-benzoyl-3-benzhydryloxycarbonylcyclopent-3-ene)-1’,6-penicillanate]] yielded a melting point of 83.4 to 85.2 °C. This molecule also came in with a cytotoxic concentration (CC50) in series [1] of 45.3 µM. Moreover, the inhibition at 25 µg/mL with HIV-1 SG3.1 came to 0%.

(Values after paper PMC9585939, “Unveiling a family of spiro-β-lactams with anti-HIV and antiplasmodial activity via phosphine-catalyzed [3+2] annulation of 6-alkylidene-penicillanates and allenoates” (Frontiers in Chemistry, 2022).)
